One test has as its target KRas(G12V) (Homo sapiens (Human), UniProt P01116, G12V). The experiment in a line: KRas(G12V) GDP HTRF (BODIPY-GDP exchange TR-FRET). It is filed as biochemical.
In the next test the target is KRas (Homo sapiens (Human), UniProt P01116). Briefly: KRas GDP HTRF (BODIPY-GDP exchange TR-FRET). It is filed as biochemical. The procedure:
KRAS Biochemical Assay—BODIPY-GDP Exchange TR-FRET. Biochemical compound potencies were assessed by evaluating inhibition of SOS1-mediated nucleotide exchange in KRAS G12D. The SOS1-promoted exchange of fluorescently-labeled GDP (BODIPY-GDP) was monitored by time-resolved fluorescence resonance energy transfer (TR-FRET). Compounds solubilized in DMSO were dispensed as concentration series into 384-well white assay plates. […] The reaction was initiated with the addition of 5 μL of 3 nM recombinant human SOS1 and 300 nM BODIPY-GDP in assay buffer. After a 60-minute incubation, the fluorescence was measured with excitation at 337 nm and emission at 490 and 520 nm. The TR-FRET ratio was determined as the fluorescence at 520 nm divided by the fluorescence at 490 nm multiplied by 10,000. […] The normalized TR-FRET results were plotted against compound concentration, and the data fit to a 4-parameter Hill equation to determine the IC50 values.
(In general: TR-FRET usually uses a lanthanide donor and a delayed reading to cut background.)

IC50 data for 22 molecules are collected here from patent US20240383915A1, “OXAZEPINE COMPOUNDS AND USES THEREOF IN THE TREATMENT OF CANCER” (Genentech, Inc., priority 2021, published 2024).

SMILES strings stand for the structures.

Sequence of KRas (P01116-2 other isoform, or with tags, fused parts or gaps): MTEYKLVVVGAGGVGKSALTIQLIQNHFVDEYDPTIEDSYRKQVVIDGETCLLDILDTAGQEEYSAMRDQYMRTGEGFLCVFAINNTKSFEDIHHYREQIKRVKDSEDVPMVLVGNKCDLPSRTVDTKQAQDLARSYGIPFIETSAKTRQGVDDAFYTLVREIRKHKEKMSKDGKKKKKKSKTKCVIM
Sequence of KRas(G12V) (P01116-2 other isoform, or with tags, fused parts or gaps G12V): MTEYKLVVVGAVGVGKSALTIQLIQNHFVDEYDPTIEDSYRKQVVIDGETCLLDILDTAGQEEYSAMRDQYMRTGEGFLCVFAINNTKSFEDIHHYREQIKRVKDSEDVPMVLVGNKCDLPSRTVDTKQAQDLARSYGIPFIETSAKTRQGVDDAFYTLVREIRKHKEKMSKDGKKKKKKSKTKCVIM

Regarding `Cc1cc(N)nc(-c2c(Cl)c3c4c(nc(OC[C@@H]5CC[C@H]6COCCN65)nc4c2F)N([C@H](C)c2nccnc2N)CCO3)c1C(F)(F)F` (atropisomer, axis not shown; (aS)) [Example 104b, 3-((R)-1-((S)-9-(6-amino-4-methyl-3-(trifluoromethyl)pyridin-2-yl)-8-chloro-10-fluoro-2-(((6S,8aS)-hexahydro-1H-pyrrolo[2,1-c][1,4]oxazin-6-yl)methoxy)-5,6-dihydro-4H-[1,4]oxazepino[5,6,7-de]quinazolin-4-yl)ethyl)pyrazin-2-amine], the half-maximal inhibitory concentration (IC50) (in general, the concentration that gives 50% inhibition) against KRas(G12V) turned out to be 16 nM; on KRas, 35.2 nM.

`Cc1cc(N)nc(-c2c(Cl)c3c4c(nc(OC[C@@H]5CC[C@H]6CN(CC(F)(F)F)CCN56)nc4c2F)N([C@H](C)c2cccnc2N)CCO3)c1C(F)(F)F` (atropisomer, axis not shown; (aS)) [Example 129a, 6-((R)-4-((R)-1-(2-aminopyridin-3-yl)ethyl)-8-chloro-10-fluoro-2-(((6S,8aS)-2-(2,2,2-trifluoroethyl)octahydropyrrolo[1,2-a]pyrazin-6-yl)methoxy)-5,6-dihydro-4H-[1,4]oxazepino[5,6,7-de]quinazolin-9-yl)-4-methyl-5-(trifluoromethyl)pyridin-2-amine]: the values for the IC50 at KRas(G12V) and against KRas were 0.31 nM and 0.232 nM, respectively.

As to `Cc1cc(N)nc(-c2c(Cl)c3c4c(nc(OC[C@@]56CCCN5C[C@H](F)C6)nc4c2F)N([C@H](C)c2cc(F)cnc2N)CCO3)c1C(F)(F)F` (atropisomer, axis not shown; (aS)) [Example 130a, 6-((R)-4-((R)-1-(2-amino-5-fluoropyridin-3-yl)ethyl)-8-chloro-10-fluoro-2-(((2R,7aS)-2-fluorotetrahydro-1H-pyrrolizin-7a(5H)-yl)methoxy)-5,6-dihydro-4H-[1,4]oxazepino[5,6,7-de]quinazolin-9-yl)-4-methyl-5-(trifluoromethyl)pyridin-2-amine], the concentration for half-maximal inhibition (IC50) against KRas(G12V) was 0.06 nM; against KRas, 0.07 nM.

For the molecule `Cc1cc(N)nc(-c2c(Cl)c3c4c(nc(OC[C@@H]5CC[C@H]6COCCN65)nc4c2F)N([C@H](C)c2ccnnc2N)CCO3)c1C(F)(F)F` (atropisomer, axis not shown; (aS)) [Example 175, 4-((R)-1-((R)-9-(6-amino-4-methyl-3-(trifluoromethyl)pyridin-2-yl)-8-chloro-10-fluoro-2-(((6S,8aS)-hexahydro-1H-pyrrolo[2,1-c][1,4]oxazin-6-yl)methoxy)-5,6-dihydro-4H-[1,4]oxazepino[5,6,7-de]quinazolin-4-yl)ethyl)pyridazin-3-amine], the IC50 at KRas(G12V) turned out to be 0.08 nM; against KRas, 0.1 nM.

As for `Cc1cc(N)nc(-c2c(Cl)c3c4c(nc(OC[C@@]56CCCN5C[C@H](F)C6)nc4c2F)N(C)CCO3)c1C(F)(F)F` (single isomer, unassigned) [Example 41b], the IC50 at KRas(G12V) was 1200 nM; against KRas, 6500 nM.

On to `Cc1cc(N)nc(-c2c(Cl)c3c4c(nc(OC[C@@H]5CC[C@H]6COCCN65)nc4c2F)N([C@H](C)c2cncc(N)c2)CCO3)c1C(F)(F)F` (single isomer, unassigned) [Example 69a], for which the IC50 on KRas(G12V) was 0.11 nM; against KRas, 0.295 nM.

As to `Cc1cc(N)nc(-c2c(Cl)c3c4c(nc(OC[C@@H]5CC(F)(F)CN5C)nc4c2F)N([C@H](C)c2cncc(N)c2)CCO3)c1C(F)(F)F` (single isomer, unassigned) [Example 70a], the IC50 against KRas(G12V) turned out to be 0.49 nM; against KRas, 8.3 nM.

For `Cc1cc(N)nc(-c2c(Cl)c3c4c(nc(OC[C@@]56CCN5CC(F)(F)C6)nc4c2F)N([C@H](C)c2nccnc2N)CCO3)c1C(F)(F)F` (single isomer, unassigned) [Example 162c], the IC50 against KRas(G12V) is 370 nM; against KRas, 830 nM.

`Cc1cc(N)nc(-c2c(Cl)c3c4c(nc(OC[C@@]56CCN5CC(F)(F)C6)nc4c2F)N([C@H](C)c2nccnc2N)CCO3)c1C(F)(F)F` (single isomer, unassigned) [Example 162d]: the IC50 on KRas(G12V) came to 410 nM; against KRas it was 896 nM.

`Cc1cc(N)nc(-c2cc3ncnc4c3c(c2Cl)OCCN4Cc2cncc(N)c2)c1C(F)(F)F` [Example 3, 6-(4-((5-aminopyridin-3-yl)methyl)-8-chloro-5,6-dihydro-4H-[1,4]oxazepino[5,6,7-de]quinazolin-9-yl)-4-methyl-5-(trifluoromethyl)pyridin-2-amine]: the IC50 on KRas(G12V) was found to be 540 nM; on KRas it was 2900 nM.

For `Cc1cc(N)nc(-c2cc3ncnc4c3c(c2Cl)OCCN4[C@@H](C)c2cncc(N)c2)c1C(F)(F)F` [Example 4, (S)-6-(4-(1-(5-aminopyridin-3-yl)ethyl)-8-chloro-5,6-dihydro-4H-[1,4]oxazepino[5,6,7-de]quinazolin-9-yl)-4-methyl-5-(trifluoromethyl)pyridin-2-amine], the IC50 on KRas(G12V) was 1400 nM; against KRas it was 10000 nM.

`CNc1cncc(CN2CCOc3c(Cl)c(-c4nc(N)cc(C)c4C(F)(F)F)cc4ncnc2c34)c1` [Example 6, 6-(8-chloro-4-((5-(methylamino)pyridin-3-yl)methyl)-5,6-dihydro-4H-[1,4]oxazepino[5,6,7-de]quinazolin-9-yl)-4-methyl-5-(trifluoromethyl)pyridin-2-amine]: the IC50 against KRas(G12V) is 1300 nM; against KRas it was 6300 nM.

Consider `Cc1cc(N)nc(-c2cc3nc(OC[C@]45CCCN4CC(F)(F)C5)nc4c3c(c2Cl)OCCN4C)c1C(F)(F)F` [Example 7, (R)-6-(8-chloro-2-((2,2-difluorotetrahydro-1H-pyrrolizin-7a(5H)-yl)methoxy)-4-methyl-5,6-dihydro-4H-[1,4]oxazepino[5,6,7-de]quinazolin-9-yl)-4-methyl-5-(trifluoromethyl)pyridin-2-amine], for which the IC50 stood at 420 nM on KRas(G12V) and 2300 nM on KRas.

With `CN1CCOc2c(Cl)c(-c3c(F)ccc4cnn(C)c34)cc3nc(OC[C@@]45CCCN4C[C@H](F)C5)nc1c23` [Example 8, 8-chloro-9-(6-fluoro-1-methyl-1H-indazol-7-yl)-2-(((2R,7aS)-2-fluorotetrahydro-1H-pyrrolizin-7a(5H)-yl)methoxy)-4-methyl-5,6-dihydro-4H-[1,4]oxazepino[5,6,7-de]quinazoline], the figures for the IC50 against KRas(G12V) and against KRas were 810 nM and 3900 nM, respectively.

With `Cc1cc(N)nc(-c2cc3ncnc4c3c(c2Cl)OCCN4Cc2cncc(O)c2)c1C(F)(F)F` [Example 9, 5-((9-(6-amino-4-methyl-3-(trifluoromethyl)pyridin-2-yl)-8-chloro-5,6-dihydro-4H-[1,4]oxazepino[5,6,7-de]quinazolin-4-yl)methyl)pyridin-3-ol], the IC50 was found to be 10000 nM against KRas(G12V) and 63000 nM against KRas.

On to `Cc1cc(N)nc(-c2cc3nc(OC[C@@]45CCCN4CC(F)(F)C5)nc4c3c(c2Cl)OCCN4C)c1C(F)(F)F` [Example 10, (S)-6-(8-chloro-2-((2,2-difluorotetrahydro-1H-pyrrolizin-7a(5H)-yl)methoxy)-4-methyl-5,6-dihydro-4H-[1,4]oxazepino[5,6,7-de]quinazolin-9-yl)-4-methyl-5-(trifluoromethyl)pyridin-2-amine], for which the concentration for half-maximal inhibition (IC50) at KRas(G12V) is 300 nM; against KRas it was 1300 nM.

Take `Cc1cc(N)nc(-c2cc3ncnc4c3c(c2Cl)OCCN4C2(c3cccnc3N)CC2)c1C(F)(F)F` [Example 11, 6-(4-(1-(2-aminopyridin-3-yl)cyclopropyl)-8-chloro-5,6-dihydro-4H-[1,4]oxazepino[5,6,7-de]quinazolin-9-yl)-4-methyl-5-(trifluoromethyl)pyridin-2-amine]: the IC50 against KRas(G12V) was found to be 1000 nM; against KRas, 14000 nM.

Turning to `Cc1cc(N)nc(-c2cc3ncnc4c3c(c2Cl)OCCN4Cc2cccc(=O)[nH]2)c1C(F)(F)F` [Example 12, 6-((9-(6-amino-4-methyl-3-(trifluoromethyl)pyridin-2-yl)-8-chloro-5,6-dihydro-4H-[1,4]oxazepino[5,6,7-de]quinazolin-4-yl)methyl)pyridin-2(1H)-one], the IC50 amounted to 8900 nM against KRas(G12V) and 21000 nM on KRas.

Turning to `Cc1cc(N)nc(-c2cc3ncnc4c3c(c2Cl)OCCN4CCC#N)c1C(F)(F)F` [Example 13, 3-(9-(6-amino-4-methyl-3-(trifluoromethyl)pyridin-2-yl)-8-chloro-5,6-dihydro-4H-[1,4]oxazepino[5,6,7-de]quinazolin-4-yl)propanenitrile], the half-inhibitory concentration (IC50) against KRas(G12V) is 13000 nM; on KRas, 36000 nM.

Turning to `Cc1cc(N)nc(-c2cc3ncnc4c3c(c2Cl)OCCN4CCC2COC2)c1C(F)(F)F` [Example 14, 6-(8-chloro-4-(2-(oxetan-3-yl)ethyl)-5,6-dihydro-4H-[1,4]oxazepino[5,6,7-de]quinazolin-9-yl)-4-methyl-5-(trifluoromethyl)pyridin-2-amine], the IC50 against KRas(G12V) was 21000 nM; at KRas it was 200000 nM.

Regarding `Cc1cc(N)nc(-c2cc3ncnc4c3c(c2Cl)OCCN4C(C)c2cnc[nH]2)c1C(F)(F)F` (centres unmarked) [Example 15, 6-(4-(1-(1H-imidazol-5-yl)ethyl)-8-chloro-5,6-dihydro-4H-[1,4]oxazepino[5,6,7-de]quinazolin-9-yl)-4-methyl-5-(trifluoromethyl)pyridin-2-amine], the IC50 against KRas(G12V) amounted to 3600 nM; against KRas, 31000 nM.

For the molecule `Cc1cc(N)nc(-c2cc3ncnc4c3c(c2Cl)OCCN4C(C)CO)c1C(F)(F)F` (centres unmarked) [Example 16, 2-(9-(6-amino-4-methyl-3-(trifluoromethyl)pyridin-2-yl)-8-chloro-5,6-dihydro-4H-[1,4]oxazepino[5,6,7-de]quinazolin-4-yl)propan-1-ol], the IC50 at KRas(G12V) amounted to 6900 nM; against KRas it was 32000 nM.
